# Results: patent US20090285862A1, “METHODS AND COMPOSITION FOR TREATMENT OF INFLAMMATORY PAIN” (priority 2006, published 2009)
# Marks after values point to notes of the source that are not given here.
# Legend:
# [1] = tested on: carrageenan-induced allodynia; assay: carrageenan paw inflammation, reversal of allodynia assessed with Von Frey hairs; assay type: in vivo, rat; settings: rats, IP, non-sedating doses, drug administered alone
# Procedure: (§1) Experiments were performed on male Wistar rats (wt 150-220 g). Three series of experiments were performed in an observer blinded fashion with saline (negative) controls and GABAPentin (positive) controls. The investigations were in three stages: • 1. a range of doses of aprepitant (an example of a NK antagonist) given alone and in combination with flupiritine (an example of an inhibitor of neuronal excitation) were tested for sedating effects using the open field activity monitor. In this way it was determined which doses of drug and drug combinations could be used to test for analgesic effects without causing sedation; • 2. a range of doses of aprepitant given alone and in combination with flupirtine were tested for the ability to reverse the allodynia effect causes by intraplantar injection of carrageenan; • 3. a range of doses of aprepitant given alone and in combination with flupirtine were tested for the ability to reverse the allodynia and hyperalgesia caused by streptozotocin-induced diabetic neuropathy.
# Inflammation involves the release of a number of substances into the tissues following injury. These substances including prostaglandins, bradykinin, inflammatory peptides such as substance P and calcitonin gene related peptide and also a number of cytokines. […] Nociceptive thresholds were measured in groups of rats prior to the intraplantar injection. […]
# [2] = tested on: male Wistar rats; assay: open field activity monitor, testing for sedation; assay type: in vivo, rat; settings: for open field activity monitor, mean: male, Wistar, rat, in vivo, ip, 20 min
# Procedure: as §1
# Individual rats (several rats per treatment group) were placed in an open field activity monitor in which the movement of the rat could be monitored remotely by the frequency and number of interruption of infrared beams directed across the box in a grid. The activity in the monitor was measured for periods of 20 minutes in each rat. This was performed in groups of rats that received (1) control injection of saline, (2) GABAPentin 50 mg/kg as the maximum dose of the drug found previously not to be sedating (drug positive control) administered intraperitoneally, or (3) after pharmacological interventions that involve the administration of aprepitant and flupiritine given at a range of doses alone and in combination. If a rat was sedated by a drug or drug combination, the movements recorded were less. Since rates became habituated to the open field monitor, only one experiment was performed on each rat with this test.
# Rats are observed in a commercially available open-field arena in which locomotor and exploratory activity can be monitored in darkness by the breaking of infrared beams arranged in a grid pattern over the entire area (MedAssociates Inc. St. Albans, Vt., USA 05478). The observations are started 5 minutes after the intraperitoneal administration of drugs. The total time of observations in all cases is 20 minutes. In order to avoid habituation to the activity monitor, animals are used once in this test for sedation. Rest time is defined as the time spent with no new infrared beam interruptions.
SMILES,"antinociception, reversal of carrageenan-induced allodynia (Von Frey) [1]","open field activity monitor, mean ([2]; 6.25 mg/kg)","open field activity monitor, mean ([2]; 12.5 mg/kg)","open field activity monitor, mean ([2]; 25 mg/kg)","open field activity monitor, mean ([2]; 50 mg/kg)","open field activity monitor, mean ([2]; 100 mg/kg)","dose causing no sedating effects (upper limit) ([2]; rats, drug given alone) [mg/kg]","maximum dose found previously not to be sedating ([2]; rats, intraperitoneally, found previously) [mg/kg]"
C[C@@H](O[C@H]1OCCN(Cc2n[nH]c(=O)[nH]2)[C@H]1c1ccc(F)cc1)c1cc(C(F)(F)F)cc(C(F)(F)F)c1 [aprepitant],neither flupirtine or aprepitant given at non-sedating doses caused any antinociception,869.0,915.0*,964.6*,976.6*,1058.2*,≤ 6.25,
NCC1(CC(=O)O)CCCCC1 [GABAPentin],,,,,,,,50
